Test results as given in patent publication US4895589A, “Heterocyclic compounds” (Imperial Chemical Industries PLC, priority 1985, dated 1990).
Where two headings read alike, the source gives them in different places.

Tests used:
Apples = test: Intermediate Retardant Test, apples; type: in vivo, Apples (Red Delicious); settings: 672 h, ~28 days, read-out: Percentage Reduction in Height of Apples (Compared to formulation blank)
Outline: (§1)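 Percentage height reduction relative to the formulation blank, assessed about 28 days post-treatment as height to top-most ligule (rice, spring barley) or to apex (apples). Compounds sprayed overall at 1000 and 4000 ppm (1 and 4 kg ha^-1 in 1000 l/ha), covering root and foliar uptake; rice grown immersed in paddy pots.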

[1] = system: plant species of Whole Plant Screen (1) or (2); test: Across screen comparison: total retardation relative to paclobutrazol (Whole Plant Screens (1) and (2)); type: in vivo; settings: compounds of Table I, Table X
Outline: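 Compounds, each tested in Whole Plant Screen (1) or (2), are compared by summing retardation scores over all species tested. Each total is expressed as a percentage of the total retardation from paclobutrazol, the standard run in every test.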

Cynosurus cristatus = settings: CC, 4000 ppm, 2-3 weeks
Method: (§3) The compounds were tested for plant growth regulator activity against up to tweleve plant species for various growth effects relevant to plant growth regulation.
(§4) After spray, the plants were grown in a glasshouse with 25° C. day/22° C. night temperatures and supplementary lighting was supplied when necessary (from mercury vapour lamps), to provide a 16 hour photoperiod. The exception to this were the temperate cereals, wheat and barley, which were grown in 16° C. day 13° C. night temperatures
(§5) After 2-3 weeks in the glasshouse, depending on the time of year, the plants were visually assessed for morphological characteristics. Formulations blanks were used as controls to assess the Plants.

Spring Barley = test: Intermediate Retardant Test, spring barley; type: in vivo, Spring Barley (Atem/kym); settings: Hordeum vulgare, 672 h, ~28 days, read-out: Percentage Reduction in Height of Spring Barley (Compared to formulation blank)
Outline: as §1

Wheat [2] = settings: WW, 4000 ppm, 2-3 weeks
Barley [3] = settings: BR, 4000 ppm, 2-3 weeks
Dacrylis glomerata = settings: DA, 4000 ppm, 2-3 weeks
Method: as §3, §4, §5

Agrostis tenius = settings: AT, 4000 ppm, 2-3 weeks
Method: as §3, §4, §5

Apple = test: Whole Plant Screen (2), apple; type: in vivo, Apple (Red Delicious); settings: AP, 4000 ppm, side-by-side, Table XIII
Method: After 2-6 weeks in the glasshouse, depending on the time of year, the plants were visually assessed for morphological characteristics. Formulation blanks were used as controls to assess the plants.
Compound numbers 1, 5 and 7 (of the present invention) were tested against compounds A, B, C and D (compound Nos. 12, 2, 24 and 50 of Table 1 EP No. 0052424) on whole plant screen (2). The compounds were tested of plant growth regulator activity against five species and for various growth effects relevant to plant growth regulation. The structures are set out in FIG. 1.
The plant species used in this screen are presented in Table XII with the leaf stage at which they were sprayed Each chemical was applied at 4000 ppm (4 kg/ha in a 1000 l/ha field volume) using a tracksprayer and a SS8004E (Teejet) nozzle. […]

Sugar beet = settings: SB, 4000 ppm, 2-3 weeks
Method: as §3, §4, §5

Tomato = settings: TO, 4000 ppm, 2-3 weeks
Wheat [4] = test: Whole Plant Screen (2), wheat; type: in vivo, Wheat (Timmo); settings: WW, 4000 ppm, side-by-side, Table XIII
Outline: (§2)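 Foliar spray at 4000 ppm (4 kg/ha in 1000 l/ha) by tracksprayer at the listed leaf stage. Plants grown in glasshouse at 25° C. day/22° C. night, 16° C./13° C. for wheat, 16 h photoperiod. Morphology visually assessed after 2-6 weeks against formulation blanks.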

Rice = test: Whole Plant Screen (2), rice; type: in vivo, Rice (Ishikari); settings: RC, 4000 ppm, side-by-side, Table XIII
Outline: as §2

Soya = settings: SY, 4000 ppm, 2-3 weeks
Method: as §3, §4, §5

Barley [5] = test: Whole Plant Screen (2), barley; type: in vivo, Barley (Atem); settings: BR, 4000 ppm, side-by-side, Table XIII

SMILES | percent reduction in plant height vs formulation blank at 1000 ppm (Apples; side-by-side, Table XVII) [%] | percent reduction in plant height vs formulation blank at 4000 ppm (Apples; Table IX) [%] | percent reduction in plant height vs formulation blank at 4000 ppm (Apples; side-by-side, Table XVII) [%] | Total Retardation expressed as a percentage of the total retardation caused by paclobutrazol [1] | Retardation score (1-3) with greening (G), apical damage (A), tillering/side shooting (T) (Cynosurus cristatus) [G] | height reduction vs blank at 1000 ppm (Spring Barley; Table VIII) [%] | height reduction vs blank at 1000 ppm (Spring Barley; side-by-side, Table XV) [%] | height reduction vs blank at 4000 ppm (Spring Barley; Table VIII) [%] | height reduction vs blank at 4000 ppm (Spring Barley; side-by-side, Table XV) [%] | Retardation score (1-3) with greening (G), apical damage (A), tillering/side shooting (T) (Wheat [2]) | Retardation score (1-3) with greening (G), apical damage (A), tillering/side shooting (T) (Barley [3]) | Retardation score (1-3) with greening (G), apical damage (A), tillering/side shooting (T) (Dacrylis glomerata) [G] | Retardation score (1-3) with greening (G), apical damage (A), tillering/side shooting (T) (Agrostis tenius) [G] | G = Greening effect (Apple) | Retardation score (1-3) with greening (G), apical damage (A), tillering/side shooting (T) (Sugar beet) [G] | Retardation score (1-3) with greening (G), apical damage (A), tillering/side shooting (T) (Tomato) | T = Tillering or side shooting (Wheat [4]) | G = Greening effect (Rice) | I = Interligular or internodal length reduction (Rice) | R = Retardation (Rice) | further results
CCCCC#CC(O)(Cn1cncn1)C(C)(C)C (centres unmarked) [Compound 1, 2,2-dimethyl-3-hydroxy-3-(hex-1-yne-1-yl)-4-(1,2,4-triazol-1-yl)-butane] | 0 | 51.6 | 41 | 84.0 % of paclobutrazol | 2 | 32.3 | 28 | 60.7 | 62 | 3T | 3T | 2 | 3 | 1 (10-30%) | 1 | 2G | 1 (10-30%) | 2 (31-60%) | 3 (61-100%) | 2 (31-60%) | T = Tillering or side shooting (Rice): 3 (61-100%); Retardation score (1-3) with greening (G), apical damage (A), tillering/side shooting (T) (Soya): 1G; G = Greening effect (Barley [5]): 1 (10-30%); T = Tillering or side shooting (Barley [5]): 1 (10-30%)
CC(C)CC#CC(O)(Cn1cncn1)C(C)(C)C (centres unmarked) [Compound 7, 2,2-dimethyl-3-hydroxy-3-(4-methyl-pent-1-yne-1-yl)-4-(1,2,4-triazol-1-yl)-butane] | 30 | 31 | 60 | 58.6 % of paclobutrazol | 2 | 33 | 20 | 75.4 | 51 | 3GT | 2GT | 1 | 2 | 1 (10-30%) | 1 | 2GT | 1 (10-30%) | 1 (10-30%) | 3 (61-100%) | 2 (31-60%) | percent reduction in plant height vs formulation blank at 1000 ppm (Apples; Table IX): 15%; G = Greening effect (Wheat [4]): 1 (10-30%); T = Tillering or side shooting (Rice): 3 (61-100%); Retardation score (1-3) with greening (G), apical damage (A), tillering/side shooting (T) (Soya): 3GAT; G = Greening effect (Barley [5]): 1 (10-30%); I = Interligular or internodal length reduction (Barley [5]): 3 (61-100%)
